Earlier results in patent US20170258746A1, “ACETIC ACID/THYMOL COMPOSITIONS AND THEIR USE IN THE TREATMENT OF ONYCHOMYCOSIS” (Dr. Paul's Enterprises, LLC, priority 2008, published 2017).

What was measured:
[1] = oral, in children; American Family Physician vol. 63, no. 4, Feb. 15, 2001
onychomycosis = settings: oral, Arch. Dermatol. 134(12) (December 1998)

SMILES | toxicity [1] | disease-free nail, % of patients (onychomycosis)
COC1=CC(=O)C[C@@H](C)[C@]12Oc1c(Cl)c(OC)cc(OC)c1C2=O [griseofulvin] | some level of toxicity | –
CN(C/C=C/C#CC(C)(C)C)Cc1cccc2ccccc12 [terbinafine] | – | 35-50%
